Data from patent US20080039438A1, “1B-Methylcarbapenem Derivative and Process for the Preparation Thereof” (Korea Institute of Science and Technology, priority 2004, published 2008).
Values after ≈ are worked out from the molar mass of the structure shown. Where two headings read alike, the source gives them in different places.

Tests used:
[1] = tested on: Streptococcus pyogenes 308A; test: MIC against standard strains (agar dilution); assay type: cell-based; conditions: standard strain Streptococcus pyogenes 308A, 37° C., 18 to 20 hours, read-out: Minimum Inhibitory Concentration (MIC)
[2] = tested on: Staphylococcus aureus 503; test: MIC against standard strains (agar dilution); assay type: cell-based; conditions: standard strain Staphylococcus aureus 503, 37° C., 18 to 20 hours, read-out: Minimum Inhibitory Concentration (MIC)
Escherichia coli 078 = test: MIC against standard strains (agar dilution); assay type: cell-based; conditions: standard strain Escherichia coli 078, 37° C., 18 to 20 hours, read-out: Minimum Inhibitory Concentration (MIC)
[3] = tested on: Pseudomonas aeruginosa 1592E; test: MIC against standard strains (agar dilution); assay type: cell-based; conditions: standard strain Pseudomonas aeruginosa 1592E, 37° C., 18 to 20 hours, read-out: Minimum Inhibitory Concentration (MIC)
[4] = tested on: Pseudomonas aeruginosa 1771; test: MIC against standard strains (agar dilution); assay type: cell-based; conditions: standard strain Pseudomonas aeruginosa 1771, 37° C., 18 to 20 hours, read-out: Minimum Inhibitory Concentration (MIC)
[5] = tested on: Enterobacter cloacae 1321E; test: MIC against standard strains (agar dilution); assay type: cell-based; conditions: standard strain Enterobacter cloacae 1321E, 37° C., 18 to 20 hours, read-out: Minimum Inhibitory Concentration (MIC)
Staphylococcus coagulase = test: MIC against clinically isolated aerobic Gram-positive strains; assay type: cell-based; conditions: for MIC50 / MIC90: Staphylococcus; for MIC Range: clinically isolated Staphylococcus coagulase, 22 strains
Streptococcus pyogenes = test: as above; assay type: cell-based; conditions: 15 strains
Enterococcus faecium = test: as above; assay type: cell-based
Enterobacter cloacae = test: MIC against clinically isolated aerobic Gram-negative strains; assay type: cell-based; conditions: 29 strains
Proteus mirabilis = test: as above; assay type: cell-based; conditions: 15 strains
Proteus vulgaris = test: as above; assay type: cell-based; conditions: 15 strains
Pseudomonas aeruginosa = test: as above; assay type: cell-based; conditions: 60 strains
Peptostreptococcus spp. = test: MIC against clinically isolated anaerobic Gram-positive strains; assay type: cell-based; conditions: 27 strains
Clostridium difficile = test: as above; assay type: cell-based; conditions: 15 strains; for MIC50 / MIC90: Clostridioides difficile
Method: The in vitro antibacterial activities of the sodium 3-carboxylate compound of the present invention prepared in the above Example were measured against standard strains (Table 1), clinically isolated aerobic Gram-positive strains (Table 2), clinically isolated aerobic Gram-negative strains (Table 3), clinically isolated anaerobic Gram-positive strains (Table 4) and clinically isolated anaerobic Gram-negative strains (Table 5) using Gram-positive bacteria such as Streptococcus and Staphylococcus, Gram-negative bacteria such as Escherichia, Salmonella, Krebsiella and Enterobacter. Imipenem (IPM), meropenem (MPM) and ertapenem (EPM) were used as control groups.
The results are shown in Tables 1 to 5, and MIC50 and MIC90 represent the concentrations at which the test strain's growth was inhibited to the extents of 50% and 90%, respectively.

[6] = tested on: Bacteroides thetaiotaomicron; test: MIC against clinically isolated anaerobic Gram-negative strains; assay type: cell-based
Bacteroides spp. = test: as above; assay type: cell-based; conditions: 11 strains
DHP-I = biological target: T1, DHP-I (Sus scrofa, UniProt P22412); assay type: in vitro ADME, porcine; conditions: pig, 50 μg/ml, pH 7
T1 construct: DHP-I used in the experiment was isolated from the kidney cortex of a porcine; from tissue; host or cells: porcine kidney cortex
T1 sequence (P22412 17-384): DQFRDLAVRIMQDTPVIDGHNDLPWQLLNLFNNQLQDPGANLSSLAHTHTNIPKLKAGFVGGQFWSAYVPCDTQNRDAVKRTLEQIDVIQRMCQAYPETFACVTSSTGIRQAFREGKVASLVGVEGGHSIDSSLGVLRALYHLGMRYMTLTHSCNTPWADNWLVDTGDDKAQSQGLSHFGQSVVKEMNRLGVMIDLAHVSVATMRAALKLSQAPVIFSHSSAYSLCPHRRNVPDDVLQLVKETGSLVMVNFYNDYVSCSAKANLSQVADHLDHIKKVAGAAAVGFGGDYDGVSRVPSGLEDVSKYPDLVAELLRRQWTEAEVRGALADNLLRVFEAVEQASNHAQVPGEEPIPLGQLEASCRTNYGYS
Method: To investigate the stability of sodium 3-carboxylate compound of formula (I) prepared in Example to DHP-I secreted in the kidney, the following experiment was performed.
DHP-I used in the experiment was isolated from the kidney cortex of a porcine. The enzyme quantity at which the concentration of imipenem was reduced by one half by hydrolysis at 30° C. for 30 minutes was defined as one unit. 50 μg/ml of a test drug and a unit of DHP-I were added to 1 ml of MOPS buffer (pH 7.0), the mixture was maintained at 30° C. and OD values at 299 nm were measured after 0.5, 1, 2, 4 hours.

[7] = Pharmacokinetics test in rats; assay type: in vivo, Sprague-Dawley rats
Method: (§1) The pharmacokinetic behavior of the sodium 3-carboxylate compound of Example was determined as follows. Male Sprague-Dawley rats (weighing 250 g, 14-15 weeks old, 5 rats/group) and Beagle dogs (weighing 10 kg, 3 dogs/group) were maintained by feeding conventional hard food at identical conditions for more than 7 days. The test animals were fasted except water for more than 24 hours before tested. […] 500 μl of each blood sample was centrifuged at 12,000 rpm for 30 seconds, the supernatant was filtered through a 0.22 μm filter, and analyzed by HPLC/UV, and the result was listed in Table 7.

[8] = Pharmacokinetics test in dogs; assay type: in vivo, Beagle dogs; conditions: dog, intravenous, 5 mg/kg
Method: as §1

[9] = clinically isolated Enterococcus faecium, 29 strains
[10] = clinically isolated Enterococcus faecium, 29 strains, read-out: MIC50
[11] = clinically isolated Enterococcus faecium, 29 strains, read-out: MIC90
[12] = clinically isolated anaerobic Bacteroides thetaiotaomicron, 15 strains
[13] = male, Sprague-Dawley, supernatant of centrifuged blood, rat, intravenous, 20 mg/kg
[14] = Beagle, supernatant of centrifuged blood

C[C@@H](O)[C@H]1C(=O)N2C(C(=O)O)=C(S[C@@H]3CN[C@H](/C=C/c4cc(C(=O)O)no4)C3)[C@H](C)[C@H]12 [Example, (1R,5S,6S,8R,3′S,5′S)-2-{5′-[(E)-2-(3-carboxylic acid or sodium carboxylate-5-isoxazolo)ethenyl]pyrrolidin-3′-ylthio}-6-(1-hydroxyethyl)-1-methylcarbapen-2-em-3-carboxylic acid]
MIC [1]: 0.049 µg/mL
MIC [2]: 0.098 µg/mL
MIC (Escherichia coli 078): 0.025 µg/mL
MIC [3]: 0.195 µg/mL
MIC [4]: 0.391 µg/mL
MIC [5]: 0.025 µg/mL
MIC50 (Staphylococcus coagulase): 0.12 µg/mL
MIC90 (Staphylococcus coagulase): 0.25 µg/mL
MIC Range (Staphylococcus coagulase): 0.06 to 0.5 µg/mL
MIC50 (Streptococcus pyogenes): < 0.008 µg/mL
MIC90 (Streptococcus pyogenes): < 0.008 µg/mL
MIC Range (Streptococcus pyogenes): <0.008 µg/mL
MIC Range (Enterococcus faecium; [9]): 16 to 128 µg/mL
MIC50 (Enterococcus faecium; [10]): 128 µg/mL
MIC90 (Enterococcus faecium; [11]): 128 µg/mL
MIC50 (Enterobacter cloacae): 0.12 µg/mL
MIC90 (Enterobacter cloacae): 0.5 µg/mL
MIC Range (Enterobacter cloacae): 0.015 to 2 µg/mL
MIC50 (Proteus mirabilis): 0.03 µg/mL
MIC90 (Proteus mirabilis): 0.06 µg/mL
MIC Range (Proteus mirabilis): 0.015 to 0.06 µg/mL
MIC50 (Proteus vulgaris): 0.06 µg/mL
MIC90 (Proteus vulgaris): 0.06 µg/mL
MIC Range (Proteus vulgaris): 0.03 to 0.06 µg/mL
MIC50 (Pseudomonas aeruginosa): 4 µg/mL
MIC90 (Pseudomonas aeruginosa): 64 µg/mL
MIC Range (Pseudomonas aeruginosa): 0.06 to 128 µg/mL
MIC50 (Peptostreptococcus spp.): 0.12 µg/mL
MIC90 (Peptostreptococcus spp.): 4 µg/mL
MIC Range (Peptostreptococcus spp.): 0.06 to 4 µg/mL
MIC Range (Clostridium difficile): 2 to 4 µg/mL
MIC50 (Clostridium difficile): 4 µg/mL
MIC90 (Clostridium difficile): 4 µg/mL
MIC Range [6, 12]: 0.5 to 8 µg/mL
MIC50 ([6]; clinically isolated anaerobic Bacteroides thetaiotaomicron, 15 strains, read-out: MIC50): 1 µg/mL
MIC90 ([6]; clinically isolated anaerobic Bacteroides thetaiotaomicron, 15 strains, read-out: MIC90): 4 µg/mL
MIC50 (Bacteroides spp.): 1 µg/mL
MIC90 (Bacteroides spp.): 1 µg/mL
MIC Range (Bacteroides spp.): 1 to 2 µg/mL
higher stability to DHP-I than imipenem (DHP-I): about 25 fold
higher bioavailability than meropenem ([7]; in rats, versus meropenem): about 4 fold
longer half-life than meropenem ([7]; in rats, versus meropenem): about 3 fold
clearance [7, 13]: 13.3 ± 1.5 mL/min/kg
half-life [7, 13]: 12.4 ± 4.1 min
AUC ([7]; male, Sprague-Dawley, supernatant of centrifuged blood, rat, intravenous, 20 mg/kg, read-out: AUC (converted)): 25300 ng·h/mL
AUC [8, 14]: 14400 ng·h/mL
half-life [8, 14]: 41 min

C[C@@H](O)[C@H]1C(=O)N2C(C(=O)O)=C(SCCN=CN)C[C@H]12 [IPM, Imipenem]
MIC [1]: 0.004 µg/mL (≈ 0.0134 µM)
MIC [2]: 0.007 µg/mL (≈ 0.0234 µM)
MIC (Escherichia coli 078): 0.098 µg/mL (≈ 0.327 µM)
MIC [3]: 0.781 µg/mL (≈ 2.61 µM)
MIC [4]: 0.781 µg/mL (≈ 2.61 µM)
MIC [5]: 0.098 µg/mL (≈ 0.327 µM)
MIC50 (Staphylococcus coagulase): 0.015 µg/mL (≈ 0.0501 µM)
MIC90 (Staphylococcus coagulase): 0.015 µg/mL (≈ 0.0501 µM)
MIC Range (Staphylococcus coagulase): 0.008 to 0.03 µg/mL
MIC50 (Streptococcus pyogenes): < 0.008 µg/mL
MIC90 (Streptococcus pyogenes): < 0.008 µg/mL
MIC Range (Streptococcus pyogenes): <0.008 µg/mL
MIC Range (Enterococcus faecium; [9]): 2 to 128 µg/mL
MIC50 (Enterococcus faecium; [10]): 128 µg/mL (≈ 428 µM)
MIC90 (Enterococcus faecium; [11]): 128 µg/mL (≈ 428 µM)
MIC50 (Enterobacter cloacae): 0.25 µg/mL (≈ 0.835 µM)
MIC90 (Enterobacter cloacae): 1 µg/mL (≈ 3.34 µM)
MIC Range (Enterobacter cloacae): 0.12 to 1 µg/mL
MIC50 (Proteus mirabilis): 2 µg/mL (≈ 6.68 µM)
MIC90 (Proteus mirabilis): 2 µg/mL (≈ 6.68 µM)
MIC Range (Proteus mirabilis): 0.25 to 4 µg/mL
MIC50 (Proteus vulgaris): 1 µg/mL (≈ 3.34 µM)
MIC90 (Proteus vulgaris): 2 µg/mL (≈ 6.68 µM)
MIC Range (Proteus vulgaris): 0.25 to 2 µg/mL
MIC50 (Pseudomonas aeruginosa): 2 µg/mL (≈ 6.68 µM)
MIC90 (Pseudomonas aeruginosa): 16 µg/mL (≈ 53.4 µM)
MIC Range (Pseudomonas aeruginosa): 0.5 to 128 µg/mL
MIC50 (Peptostreptococcus spp.): 0.06 µg/mL (≈ 0.2 µM)
MIC90 (Peptostreptococcus spp.): 2 µg/mL (≈ 6.68 µM)
MIC Range (Peptostreptococcus spp.): 0.06 to 2 µg/mL
MIC Range (Clostridium difficile): 4 to 16 µg/mL
MIC50 (Clostridium difficile): 8 µg/mL (≈ 26.7 µM)
MIC90 (Clostridium difficile): 8 µg/mL (≈ 26.7 µM)
MIC50 ([6]; Bacteroides thetaiotaomicron): 0.5 µg/mL (≈ 1.67 µM)
MIC90 ([6]; Bacteroides thetaiotaomicron): 4 µg/mL (≈ 13.4 µM)
MIC Range [6, 12]: 0.12 to 16 µg/mL
MIC50 (Bacteroides spp.): 0.5 µg/mL (≈ 1.67 µM)
MIC90 (Bacteroides spp.): 1 µg/mL (≈ 3.34 µM)
MIC Range (Bacteroides spp.): 0.25 to 2 µg/mL

C[C@@H](O)[C@H]1C(=O)N2C(C(=O)O)=C(S[C@@H]3CN[C@H](C(=O)N(C)C)C3)[C@H](C)[C@H]12 [MPM, meropenem]
MIC [1]: 0.007 µg/mL (≈ 0.0183 µM)
MIC [2]: 0.098 µg/mL (≈ 0.256 µM)
MIC (Escherichia coli 078): 0.025 µg/mL (≈ 0.0652 µM)
MIC [3]: 0.098 µg/mL (≈ 0.256 µM)
MIC [4]: 0.391 µg/mL (≈ 1.02 µM)
MIC [5]: 0.025 µg/mL (≈ 0.0652 µM)
MIC50 (Staphylococcus coagulase): 0.06 µg/mL (≈ 0.156 µM)
MIC90 (Staphylococcus coagulase): 0.12 µg/mL (≈ 0.313 µM)
MIC Range (Staphylococcus coagulase): 0.03 to 0.5 µg/mL
MIC50 (Streptococcus pyogenes): < 0.008 µg/mL
MIC90 (Streptococcus pyogenes): < 0.008 µg/mL
MIC Range (Streptococcus pyogenes): <0.008 µg/mL
MIC50 (Enterococcus faecium; Enterococcus faecium): 128 µg/mL (≈ 334 µM)
MIC90 (Enterococcus faecium; Enterococcus faecium): 128 µg/mL (≈ 334 µM)
MIC50 (Enterobacter cloacae): 0.03 µg/mL (≈ 0.0782 µM)
MIC90 (Enterobacter cloacae): 0.25 µg/mL (≈ 0.652 µM)
MIC Range (Enterobacter cloacae): 0.015 to 0.5 µg/mL
MIC50 (Proteus mirabilis): 0.06 µg/mL (≈ 0.156 µM)
MIC90 (Proteus mirabilis): 0.06 µg/mL (≈ 0.156 µM)
MIC Range (Proteus mirabilis): 0.015 to 0.06 µg/mL
MIC50 (Proteus vulgaris): 0.06 µg/mL (≈ 0.156 µM)
MIC90 (Proteus vulgaris): 0.06 µg/mL (≈ 0.156 µM)
MIC Range (Proteus vulgaris): 0.03 to 0.06 µg/mL
MIC50 (Pseudomonas aeruginosa): 2 µg/mL (≈ 5.22 µM)
MIC90 (Pseudomonas aeruginosa): 16 µg/mL (≈ 41.7 µM)
MIC50 (Peptostreptococcus spp.): 0.06 µg/mL (≈ 0.156 µM)
MIC90 (Peptostreptococcus spp.): 4 µg/mL (≈ 10.4 µM)
MIC Range (Peptostreptococcus spp.): 0.06 to 4 µg/mL
MIC Range (Clostridium difficile): 1 to 2 µg/mL
MIC50 (Clostridium difficile): 1 µg/mL (≈ 2.61 µM)
MIC90 (Clostridium difficile): 2 µg/mL (≈ 5.22 µM)
MIC50 ([6]; Bacteroides thetaiotaomicron): 0.25 µg/mL (≈ 0.652 µM)
MIC90 ([6]; Bacteroides thetaiotaomicron): 0.5 µg/mL (≈ 1.3 µM)
MIC Range [6, 12]: 0.25 to 2 µg/mL
MIC50 (Bacteroides spp.): 0.5 µg/mL (≈ 1.3 µM)
MIC90 (Bacteroides spp.): 0.5 µg/mL (≈ 1.3 µM)
MIC Range (Bacteroides spp.): 0.12 to 0.5 µg/mL
AUC ([7]; rat, intravenous, 20 mg/kg): 6380 ± 600 ng·h/mL
CL ([7]; rat, intravenous, 20 mg/kg): 54.2 ± 5.3 mL/min/kg
T1/2 ([7]; rat, intravenous, 20 mg/kg): 4.0 ± 0.2 min
AUC [8, 14]: 11600 ng·h/mL
T1/2 [8]: 33 min
